Data reported in patent US10314847B2, “Scalarane sesterterpenoid, pharmaceutical composition and topoisomerase II and Hsp90 inhibitor for treating cancer, and use and preparation method thereof” (NATIONAL DONG HWA UNIVERSITY, priority 2017, dated 2019).

Legend:
γH2AX = assay: Western blot of γH2AX expression in Molt 4 cells; type: cell-based, human; settings: Molt 4 cells, 0.0625, 0.125 and 0.25 μg/mL, 24 hours
Description: Protein expression was analyzed with Western blotting. GAPDH was used as the loading control.
In order to confirm whether the DNA damage-induced by the marine terpenoids of the present invention involved the inhibition of Topo II activity, a cell-free DNA cleavage assay using an enzyme-mediated negatively supercoiled pHOT1 plasmid DNA was applied. […] These marine terpenoids suppressed Topo II activity, resulting in the inhibition of supercoiled DNA relaxation in a dose-dependent manner (FIG. 2(A)). […] To determine whether the apoptotic mechanism of compounds 1 to 3 affects γH2AX (as a biomarker of DNA damage) induction, Western blot analysis was employed to examine the activation of γH2AX.

human topoisomerase II = biological target: T1, human topoisomerase II (Homo sapiens, UniProt P11388); assay: Assay of topoisomerase II catalytic inhibitors and poisons (cell-free pHOT1 DNA relaxation/cleavage); type: biochemical
T1 construct: purchased Topogen
T1 sequence (P11388 whole entry): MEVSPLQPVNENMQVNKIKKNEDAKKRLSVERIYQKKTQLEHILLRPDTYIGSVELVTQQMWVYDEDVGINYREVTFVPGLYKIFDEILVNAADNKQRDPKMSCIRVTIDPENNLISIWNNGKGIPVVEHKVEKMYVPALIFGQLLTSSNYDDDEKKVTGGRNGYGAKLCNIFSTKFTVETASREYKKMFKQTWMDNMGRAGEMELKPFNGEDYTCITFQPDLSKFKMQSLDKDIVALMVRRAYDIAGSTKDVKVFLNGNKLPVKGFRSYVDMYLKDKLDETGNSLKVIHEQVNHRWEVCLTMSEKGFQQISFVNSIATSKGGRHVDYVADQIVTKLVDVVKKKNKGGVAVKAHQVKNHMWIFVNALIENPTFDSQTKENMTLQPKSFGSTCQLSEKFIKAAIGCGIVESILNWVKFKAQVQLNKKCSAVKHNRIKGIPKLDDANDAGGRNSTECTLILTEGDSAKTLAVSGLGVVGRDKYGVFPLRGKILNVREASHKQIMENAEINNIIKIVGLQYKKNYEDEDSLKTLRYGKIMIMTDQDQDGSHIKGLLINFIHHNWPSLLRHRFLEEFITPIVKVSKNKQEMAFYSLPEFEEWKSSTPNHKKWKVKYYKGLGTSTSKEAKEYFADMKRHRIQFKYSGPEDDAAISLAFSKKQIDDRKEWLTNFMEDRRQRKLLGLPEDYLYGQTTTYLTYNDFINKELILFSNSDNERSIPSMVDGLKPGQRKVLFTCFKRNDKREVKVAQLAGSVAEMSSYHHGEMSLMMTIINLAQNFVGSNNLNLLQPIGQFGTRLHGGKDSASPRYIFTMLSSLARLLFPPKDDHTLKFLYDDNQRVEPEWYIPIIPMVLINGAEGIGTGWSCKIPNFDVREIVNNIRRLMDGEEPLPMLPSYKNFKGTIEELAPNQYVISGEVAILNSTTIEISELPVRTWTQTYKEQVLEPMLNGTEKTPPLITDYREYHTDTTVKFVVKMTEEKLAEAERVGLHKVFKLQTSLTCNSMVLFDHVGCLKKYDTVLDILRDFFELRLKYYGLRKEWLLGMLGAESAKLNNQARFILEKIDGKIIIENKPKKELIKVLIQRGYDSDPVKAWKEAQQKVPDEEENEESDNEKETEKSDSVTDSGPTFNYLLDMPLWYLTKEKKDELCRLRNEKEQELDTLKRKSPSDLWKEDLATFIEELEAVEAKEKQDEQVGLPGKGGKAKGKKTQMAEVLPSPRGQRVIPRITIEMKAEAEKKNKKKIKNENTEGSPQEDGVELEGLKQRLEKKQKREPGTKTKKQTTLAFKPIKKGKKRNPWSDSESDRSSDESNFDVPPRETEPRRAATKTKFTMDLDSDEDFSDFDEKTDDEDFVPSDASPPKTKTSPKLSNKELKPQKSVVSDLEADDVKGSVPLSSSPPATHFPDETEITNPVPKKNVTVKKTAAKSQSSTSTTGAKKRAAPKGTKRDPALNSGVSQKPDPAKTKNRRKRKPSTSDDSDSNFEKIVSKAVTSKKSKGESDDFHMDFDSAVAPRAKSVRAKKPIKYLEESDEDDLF
Description: Assay of Topoisomerase II Catalytic Inhibitors and Poisons:
Reactions were terminated by adding 2 μL of 10% SDS to facilitate trapping the enzyme in a cleavage complex, followed by the addition of 2.5 μL of proteinase K (50 μg/mL) to digest the bound protein (incubated at 37° C. for 15 minutes) and finally by adding 0.1 volume of the sample loading dye. The DNA products were analyzed via electrophoresis through vertical 2% agarose gels at 2 voltage/cm in 0.5×TAE buffer. Gels were stained with ethidium bromide (EtBr) and photographed using an Eagle Eye II system (Stratagene, La Jolla, Calif., U.S.A.). The quantitative analysis of the DNA Topo II activity was performed.

Molt 4 = test system: Molt 4
From the text: The cell lines were obtained from the American Type Culture Collection (ATCC, Manassas, Va., U.S.A.) or the Japanese Collection of Research Biosources (JCRB) Cell Bank (Japan). […] Antibodies against XIAP, NFκB (p65), GADD, CDK 4, HSF 1, ATF 6 and β-tubulin were obtained from Santa Cruz Biotechnology (Santa Cruz, Calif., U.S.A.). The Hybond ECL transfer membrane and ECL Western blotting detection kits were obtained from Amersham Life Sciences (Amersham, U.K.).
Several cancer cell lines including leukemia K562, Molt 4, and HL 60 cells, prostate cancer LNCaP cells, colon cancer DLD-1 cells and breast cancer T-47D cells were used to evaluate the antiproliferative activity (referring to Table 2).
It is known that mitochondria are critical intracellular loci of ROS production and ROS exposure can lead to the […] opening. The antioxidant, microsomal GST1, in the inner mitochondrial membrane can interact with the mitochondrial permeability transition (MPT) regulator proteins, such as ANT and/or CypD, to form a MPT pore contributing to mitochondria-mediated cell death. In addition, mitochondrial homeostasis of tumor cells is regulated by an organelle-specific Hsp90 chaperone network.

Molt 4 cells [1] = assay: Annexin V/PI apoptosis assay; type: cell-based, human; settings: Molt 4 cells, 0.0625, 0.125 and 0.25 μg/mL, 24 hours, dose-dependent
Description: Annexin V/Propidium Iodide (PI) Apoptosis Assay:
The externalization of phosphatidylserine (PS) and membrane integrity were quantified using an annexin V-fluorescein isothiocyanate (annexin V-FITC) staining kit. In brief, 10^6 cells were grown in 35 mm diameter plates and were labeled with annexin V-FITC (10 μg/mL) and PI (20 μg/mL) prior to harvesting. After labeling, all plates were washed with a binding buffer and harvested. Cells were resuspended in the binding buffer at a concentration of 2×10^5 cells/mL before analysis by flow cytometer FACS-Calibur (Becton-Dickinson, San Jose, Calif., U.S.A.) and CellQuest software. Approximately 10,000 cells were counted for each determination.

Molt 4 cells [2] = assay: JC-1 staining, mitochondrial membrane potential disruption; type: cell-based, human; settings: Molt 4 cells, 0.0625, 0.125 and 0.25 μg/mL, 24 hours, dose-dependent
Description: Determination of Reactive Oxygen Species (ROS) Generation, Calcium Accumulation, and Matrix Metalloproteinase (MMP) Disruption:
MMP disruption, calcium accumulation and ROS generation were detected with the JC-1 cationic dye (5 μg/mL), the fluorescent calcium indicator (Fluo 3, […]) and the carboxy derivative of fluorescein (carboxy-H2DCFDA, […]), respectively. In brief, the treated cells were labeled with a specific fluorescent dye for 30 minutes. After labeling, cells were washed with PBS and resuspended in PBS at a concentration of 1×10^6 cells/mL before analysis via flow cytometry.

[3] = test system: human Molt 4 tumor xenograft; assay: Human leukemia Molt 4 cells xenograft animal model; type: in vivo, mice; settings: 1.14 μg/g intraperitoneal, 33 days
Description: FIG. 3(A) is a diagram showing the effect of compound 3 on the tumor growth in an in vivo human Molt 4 tumor xenograft animal model. Tumor-bearing nude mice were intraperitoneally injected with solvent control (DMSO) and compound 3 (1.14 μg/g) for 33 days. […] Control, n=8; compound 3, n=7.
FIG. 3(B) is a diagram showing the effect of compound 3 on the body weight in the in vivo human Molt 4 tumor xenograft animal model. Tumor-bearing nude mice were intraperitoneally injected with solvent control (DMSO) and compound 3 (1.14 μg/g) for 33 days. The body weight were measured every other day, and the results are expressed as mean±SD. Control, n=8; compound 3, n=7.
Human Leukemia Molt 4 Cells Xenograft Animal Model:
Six-week-old male immunodeficient athymic mice were purchased from the National Laboratory Animal and Research Center (Taipei, Taiwan). All of the animals were maintained under standard laboratory conditions (temperature 24-26° C., 12-12 hour dark-light circle) and fed with a laboratory diet and water. Molt 4 cells (1×10^6) resuspended in 0.2 mL PBS were injected subcutaneously (s.c.) into the right flank of each mouse, and tumor growth was monitored every day. […] Tumor size was measured three times a week using calipers and tumor volumes were calculated according to the standard formula: width^2×length/2.

SMILES | Expression of γH2AX (DNA damage biomarker) (γH2AX) | IC50 (human topoisomerase II; cell-free system, read-out: Topo II activity IC50 (converted)) [nM] | Cytotoxic effect IC50, Molt 4 (Molt 4) [µg/mL] | Apoptotic population (annexin-V/PI) (Molt 4 cells [1]) | Mitochondrial membrane potential (JC-1) (Molt 4 cells [2]) | inhibition at 0.08 µg/mL (human topoisomerase II; 0.08 μg/mL) [%] | inhibition at 0.312 µg/mL (human topoisomerase II; 0.312 μg/mL) [%] | inhibition at 1.25 µg/mL (human topoisomerase II; 1.25 μg/mL) [%] | inhibition at 5 µg/mL (human topoisomerase II; 5 μg/mL) [%] | inhibition at 20 µg/mL (human topoisomerase II; 20 μg/mL) [%] | Topo II activity IC50 (human topoisomerase II; cell-free system) [µg/mL] | Mice body weights versus control [3]
CC[C@@H](O)CC(=O)O[C@@H]1C[C@@H]2[C@@]3(C)CCC[C@](C)(CC)[C@@H]3CC[C@@]2(C)[C@@H]2CC=C(C(C)=O)[C@H](C=O)[C@@]12C (relative stereo) [Compound 2, 12β-(3′β-hydroxypentanoyloxy)-20,24-dimethyl-24-oxo-scalara-16-en-25-al] | significantly enhanced the expression of γH2AX in a dose-dependent manner | 719 | 0.30 | increase in the apoptotic population | disruption in mitochondrial membrane potential | – | – | – | – | – | – | –
CC(C)=CCC/C(C)=C/CC/C(C)=C/CC/C(C)=C/CC1=CC(=O)C=CC1=O [Compound 3, 2-tetraprenil-1,4-benzochinone] | activation of DNA damage was not observed | – | 0.34 | increase in the apoptotic population | disruption in mitochondrial membrane potential | 7 | 13 | 28 | 90 | 98 | 0.43 | no significant difference
